BindingDB's records for doi:10.1021/jm060173k (Schering-Plough Research Institute, 2007)

The molecules below were run against Genome polyprotein (Hepatitis C virus genotype 1a (isolate H77), UniProt P27958) (assay: Continuous Spectrophotometric Assay). Settings: not given.
Protocol: Proteolytic cleavage of the ester linkage between the Nva (L-norvaline) and the chromophore (PAP) was monitored for change in absorbance at 370 nm. Initial velocities were determined using linear regression and kinetic constants were obtained by fitting the data to the Michaelis-Menten equation.

Genome polyprotein, sequence (P27958 1027-1657 limits assumed): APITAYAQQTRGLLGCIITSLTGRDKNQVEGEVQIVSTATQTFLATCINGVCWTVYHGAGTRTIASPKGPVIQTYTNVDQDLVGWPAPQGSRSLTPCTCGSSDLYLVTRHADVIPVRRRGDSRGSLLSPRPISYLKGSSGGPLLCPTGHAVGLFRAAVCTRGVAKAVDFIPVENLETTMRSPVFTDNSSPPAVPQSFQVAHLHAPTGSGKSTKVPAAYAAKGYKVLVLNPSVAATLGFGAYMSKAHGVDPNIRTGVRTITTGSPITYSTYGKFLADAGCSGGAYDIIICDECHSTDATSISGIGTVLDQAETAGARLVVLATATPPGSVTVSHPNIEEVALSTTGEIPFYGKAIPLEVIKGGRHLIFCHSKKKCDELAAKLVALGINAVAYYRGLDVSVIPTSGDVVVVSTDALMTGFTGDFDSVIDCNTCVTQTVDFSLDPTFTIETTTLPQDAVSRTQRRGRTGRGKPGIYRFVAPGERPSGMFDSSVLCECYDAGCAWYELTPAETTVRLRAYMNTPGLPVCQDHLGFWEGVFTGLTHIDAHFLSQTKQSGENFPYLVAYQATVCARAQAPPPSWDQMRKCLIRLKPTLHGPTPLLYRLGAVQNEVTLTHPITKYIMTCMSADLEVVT

SMILES	Ki [nM]
CC(C)CC(NC(=O)C(NC(=O)NC(C)(C)C)C(C)(C)C)C(=O)NC(CC1CCC1)C(=O)C(N)=O (stereo not given) [2-{2-[(tert-butylcarbamoyl)amino]-3,3-dimethylbutanamido}-N-(1-carbamoyl-3-cyclobutyl-1-oxopropan-2-yl)-4-methylpentanamide]	1000
CC(C)(C)NC(=O)NC(C(=O)N1C[C@@H]2OC(C)(C)[C@@H]2C1C(=O)NC(CC1CCC1)C(=O)C(N)=O)C(C)(C)C (stereo partly drawn) [3-{[(1R,5R)-3-{2-[(tert-butylcarbamoyl)amino]-3,3-dimethylbutanoyl}-7,7-dimethyl-6-oxa-3-azabicyclo[3.2.0]heptan-2-yl]formamido}-4-cyclobutyl-2-oxobutanamide]	960
CC(C)(C)NC(=O)NC(C(=O)N1C[C@H]2[C@@H](C1C(=O)NC(CC1CC1(F)F)C(=O)C(N)=O)C2(C)C)C(C)(C)C (stereo partly drawn) [3-{[(1R,5S)-3-{2-[(tert-butylcarbamoyl)amino]-3,3-dimethylbutanoyl}-6,6-dimethyl-3-azabicyclo[3.1.0]hexan-2-yl]formamido}-4-(2,2-difluorocyclopropyl)-2-oxobutanamide]	50
CC(C)(C)NC(=O)NC(C(=O)N1C[C@H]2[C@@H](C1C(=O)NC(CC1CC(F)(F)C1)C(=O)C(N)=O)C2(C)C)C(C)(C)C (stereo partly drawn) [3-{[(1R,5S)-3-{2-[(tert-butylcarbamoyl)amino]-3,3-dimethylbutanoyl}-6,6-dimethyl-3-azabicyclo[3.1.0]hexan-2-yl]formamido}-4-(3,3-difluorocyclobutyl)-2-oxobutanamide]	115
CC(C)C(NC(=O)NC(C)(C)C)C(=O)N1C[C@H]2[C@@H](C1C(=O)NC(CC1CC1)C(=O)C(N)=O)C2(C)C (stereo partly drawn) [3-{[(1R,5S)-3-{2-[(tert-butylcarbamoyl)amino]-3-methylbutanoyl}-6,6-dimethyl-3-azabicyclo[3.1.0]hexan-2-yl]formamido}-4-cyclopropyl-2-oxobutanamide]	100
CC(C)(C)NC(=O)NC(C(=O)N1C[C@H]2[C@@H](C1C(=O)NC(CC1CCC1)C(=O)C(N)=O)C2(Cl)Cl)C(C)(C)C (stereo partly drawn) [3-{[(1S,5R)-3-{2-[(tert-butylcarbamoyl)amino]-3,3-dimethylbutanoyl}-6,6-dichloro-3-azabicyclo[3.1.0]hexan-2-yl]formamido}-4-cyclobutyl-2-oxobutanamide]	19

Now from value to molecule:

Ki [nM]	SMILES
140	CC(C)(C)NC(=O)NC(C(=O)N1C[C@H]2[C@@H](C1C(=O)NC(CC1CCC1)C(=O)C(N)=O)C2(F)F)C(C)(C)C (stereo partly drawn) [3-{[(1S,5R)-3-{2-[(tert-butylcarbamoyl)amino]-3,3-dimethylbutanoyl}-6,6-difluoro-3-azabicyclo[3.1.0]hexan-2-yl]formamido}-4-cyclobutyl-2-oxobutanamide]
500	CC(C)(C)NC(=O)NC(C(=O)N1C[C@@H]2OC(C)(C)C[C@@H]2C1C(=O)NC(CC1CCC1)C(=O)C(N)=O)C(C)(C)C (stereo partly drawn) [3-{[(3aR,6aR)-5-{2-[(tert-butylcarbamoyl)amino]-3,3-dimethylbutanoyl}-2,2-dimethyl-hexahydro-2H-furo[2,3-c]pyrrol-4-yl]formamido}-4-cyclobutyl-2-oxobutanamide]
38	CC(=O)NC(C(=O)NC(C(=O)N1C[C@H]2[C@@H](C1C(=O)NC(CC1CCC1)C(=O)C(N)=O)C2(C)C)C(C)(C)C)C(C)C (stereo partly drawn) [N-{1-[(1R,5S)-2-[(1-carbamoyl-3-cyclobutyl-1-oxopropan-2-yl)carbamoyl]-6,6-dimethyl-3-azabicyclo[3.1.0]hexan-3-yl]-3,3-dimethyl-1-oxobutan-2-yl}-2-acetamido-3-methylbutanamide]
68	CC(=O)NC(C(=O)NC(C(=O)N1C[C@H]2[C@@H](C1C(=O)NC(CC1CC1)C(=O)C(N)=O)C2(C)C)C1CCCCC1)C(C)C (stereo partly drawn) [N-{2-[(1R,5S)-2-[(1-carbamoyl-3-cyclopropyl-1-oxopropan-2-yl)carbamoyl]-6,6-dimethyl-3-azabicyclo[3.1.0]hexan-3-yl]-1-cyclohexyl-2-oxoethyl}-2-acetamido-3-methylbutanamide]
230	CCOC(=O)NC(C(=O)N1C[C@H]2[C@@H](C1C(=O)NC(CC1CC1)C(=O)C(N)=O)C2(C)C)C1CCCCC1 (stereo partly drawn) [ethyl N-{2-[(1R,5S)-2-[(1-carbamoyl-3-cyclopropyl-1-oxopropan-2-yl)carbamoyl]-6,6-dimethyl-3-azabicyclo[3.1.0]hexan-3-yl]-1-cyclohexyl-2-oxoethyl}carbamate]
800	COC(=O)NC(C(=O)N1C[C@H]2[C@@H](C1C(=O)NC(CC1CC1)C(=O)C(N)=O)C2(C)C)C1CCCCC1 (stereo partly drawn) [methyl N-{2-[(1R,5S)-2-[(1-carbamoyl-3-cyclopropyl-1-oxopropan-2-yl)carbamoyl]-6,6-dimethyl-3-azabicyclo[3.1.0]hexan-3-yl]-1-cyclohexyl-2-oxoethyl}carbamate]
60	CC(C)OC(=O)NC(C(=O)N1C[C@H]2[C@@H](C1C(=O)NC(CC1CC1)C(=O)C(N)=O)C2(C)C)C1CCCCC1 (stereo partly drawn) [propan-2-yl N-{2-[(1R,5S)-2-[(1-carbamoyl-3-cyclopropyl-1-oxopropan-2-yl)carbamoyl]-6,6-dimethyl-3-azabicyclo[3.1.0]hexan-3-yl]-1-cyclohexyl-2-oxoethyl}carbamate]

Same assay, conditions: pH 6.5; 30 °C

SMILES	Ki [nM]
CCCC(NC(=O)C1[C@@H]2[C@H](CN1C(=O)C(NC(=O)NC(C)(C)C)C1CCCCC1)C2(C)C)C(=O)C(N)=O (stereo partly drawn) [3-{[(1R,5S)-3-{2-[(tert-butylcarbamoyl)amino]-2-cyclohexylacetyl}-6,6-dimethyl-3-azabicyclo[3.1.0]hexan-2-yl]formamido}-2-oxohexanamide]	54
CC(C)(C)NC(=O)NC(C(=O)N1C[C@H]2[C@@H](C1C(=O)NC(C(=O)C(N)=O)C1CCC1)C2(C)C)C(C)(C)C (stereo partly drawn) [3-{[(1R,5S)-3-{2-[(tert-butylcarbamoyl)amino]-3,3-dimethylbutanoyl}-6,6-dimethyl-3-azabicyclo[3.1.0]hexan-2-yl]formamido}-3-cyclobutyl-2-oxopropanamide]	100

Now from value to molecule:

Ki [nM]	SMILES
360	CCCCC(NC(=O)C1[C@@H]2[C@H](CN1C(=O)C(NC(=O)OC(C)(C)C)C(C)(C)C)C2(C)C)C(=O)C(N)=O (stereo partly drawn) [tert-butyl N-{1-[(1R,5S)-2-[(1-carbamoyl-1-oxohexan-2-yl)carbamoyl]-6,6-dimethyl-3-azabicyclo[3.1.0]hexan-3-yl]-3,3-dimethyl-1-oxobutan-2-yl}carbamate]
220	CCCC(NC(=O)C1[C@@H]2[C@H](CN1C(=O)C(NC(=O)OC(C)(C)C)C(C)(C)C)C2(C)C)C(=O)C(N)=O (stereo partly drawn) [tert-butyl N-{1-[(1R,5S)-2-[(1-carbamoyl-1-oxopentan-2-yl)carbamoyl]-6,6-dimethyl-3-azabicyclo[3.1.0]hexan-3-yl]-3,3-dimethyl-1-oxobutan-2-yl}carbamate]
> 69000	CC(C)(C)OC(=O)NC(C(=O)N1C[C@H]2[C@@H](C1C(=O)NC(C(=O)C(N)=O)C(C)(C)C)C2(C)C)C(C)(C)C (stereo partly drawn) [tert-butyl N-{1-[(1R,5S)-2-[(1-carbamoyl-3,3-dimethyl-1-oxobutan-2-yl)carbamoyl]-6,6-dimethyl-3-azabicyclo[3.1.0]hexan-3-yl]-3,3-dimethyl-1-oxobutan-2-yl}carbamate]
> 3300	CC(C)(C)CC(NC(=O)C1[C@@H]2[C@H](CN1C(=O)C(NC(=O)OC(C)(C)C)C(C)(C)C)C2(C)C)C(=O)C(N)=O (stereo partly drawn) [tert-butyl N-{1-[(1R,5S)-2-[(1-carbamoyl-4,4-dimethyl-1-oxopentan-2-yl)carbamoyl]-6,6-dimethyl-3-azabicyclo[3.1.0]hexan-3-yl]-3,3-dimethyl-1-oxobutan-2-yl}carbamate]
480	CC(C)CC(NC(=O)C1[C@@H]2[C@H](CN1C(=O)C(NC(=O)OC(C)(C)C)C(C)(C)C)C2(C)C)C(=O)C(N)=O (stereo partly drawn) [tert-butyl N-{1-[(1R,5S)-2-[(1-carbamoyl-4-methyl-1-oxopentan-2-yl)carbamoyl]-6,6-dimethyl-3-azabicyclo[3.1.0]hexan-3-yl]-3,3-dimethyl-1-oxobutan-2-yl}carbamate]
